From EP1021088B1, “FUNGICIDE MIXTURES BASED ON FLUQUINCONAZOLE” (Aventis CropScience UK Limited, priority 1997, dated 1999) come the findings set out here.

Test [1] concerns Erysiphe graminis (powdery mildew). In words: Control of powdery mildew on wheat plants, spraying one day after inoculation. The format is in vivo. The note with it: sprayed one day after inoculation. The protocol:
(§1) Wheat plants were inoculated with Erysiphe graminis (powdery mildew). Two days after inoculation, they were sprayed with fluquinconazole, obtained by diluting with water to the desired concentration, a suspension concentrate comprising 10% by weight active ingredient, or azoxystrobin obtained by diluting with water to the desired concentration, the commercial product sold under the trade name "Amistar", or mixtures of these. One week after inoculation, the wheat was assessed for control of disease. To indicate the existence of synergism between the active components the results were treated in the manner described by Colby S.R., "Calculating Synergistic and Antagonistic Responses of Herbicide Combinations" in Weeds 1967 15, 20-22). In this method the "expected" percent control of growth, E, of the combination compared with untreated control is given by the equation E = A + F -(AF)/(100) [formula] where A is the % control by azoxystrobin used alone at a given concentration and F is the % control by fluquinconazole, used alone at a given concentration. […] In the table, component "az" is azoxystrobin and "fq" is fluquinconazole. Table 1 In a similar manner, Example 1 was repeated with spraying one day after inoculation. The results are as follows Table 2

The test system is the same in test [2]. Kind of test: Control of powdery mildew on wheat plants, spraying two days after inoculation. It is filed as in vivo. Particulars: sprayed two days after inoculation, assessed one week after inoculation. The protocol:
as §1, with “fluquinconazole.” for “fluquinconazole. Table 1 In a similar manner, Example 1 was repeated with spraying one day after inoculation. The results are as follows Table 2”

Structures are written as SMILES.

For the compound `CO/C=C(/C(=O)OC)c1ccccc1Oc1cc(Oc2ccccc2C#N)ncn1` [az, methyl (E)-2-{2-[6-(2-cyanophenoxy)pyrimidin-4-yloxy]phenyl}-3-methoxyacrylate], the “% Control Observed” value in test [1] (az 31.25 g cpd/ha) is reported as 0%; in test [1] (az 62.5 g cpd/ha), 0%; in test [2] (az 31.25 g cpd/ha) it was 10%; in test [2] (az 62.5 g cpd/ha), 12%; in test [2] (az 125 g cpd/ha), 42%; in test [2] (az 187.5 g cpd/ha) it was 62%.

Turning to `O=c1c2cc(F)ccc2nc(-n2cncn2)n1-c1ccc(Cl)cc1Cl` [fq, 3-(2,4-dichlorophenyl)-6-fluoro-2-((1H)-1,2,4-triazol-1-yl)-4(3H)-quinazolinone], the “% Control Observed” value in test [1] (fq 15.25 g cpd/ha) came to 12%; in test [1] (fq 31.25 g cpd/ha) it was 68%; in test [2] (fq 15.25 g cpd/ha), 24%; in test [2] (fq 31.25 g cpd/ha), 70%.
